Laboratory results reported in patent publication US20110287439A1, “CLAS[…]” (reMYND NV, priority 2008, published 2011).

Test system: Yeast strain SKAM4 RAD54-LacZ reporter
Assay: Radarscreen with luminescence and S9 metabolic activation
Conditions: analysed with S9 compared with without S9; 6 hours at 30° C.; 2% S9
Procedure: Yeast strain SKAM4 bears a RAD54-LacZ reporter construct, which is responsive to agents that affect the integrity of its genomic DNA. Compounds supplied to the growth medium can be evaluated for genotoxicity by determining their effect on reporter gene expression. Reporter activity is measured by adding Beta-Glo® cell lyses buffer, containing a beta-galactosidase substrate, to the yeast culture. The substrate is cleaved by beta-galactosidase to luciferin and galactose. Luciferin is then used in a luciferase reaction to generate light. Metabolic activation of the compounds is obtained by adding post mitochondrial supernatant S9. […]
OD595 of the overnight cultures has to be determined. […]
600 μl S9-mixture is added to 5280 μl of the diluted culture and 600 μl buffer without S9 to 5280 μl of the diluted culture (these are quantities to fill 1 plate). […] The OD595 is measured after the plates have been vortexed rigorously to resuspend the precipitated yeast cells. […]
50 μl Beta-Glo® cell lyses buffer is added to the wells and the plate is vortexed for 45-60 min whereafter luminescence is measured. […]
Luminescence read out blanc correction is performed by subtraction of the luminescence value of medium without yeast cells from the luminescence read out of a sample with compound and dividing it by the corrected and normalized OD595 value. […]

## CC[n+]1c(-c2ccccc2)c2cc(N)ccc2c2ccc(N)cc21 [ethidium bromide]
  signal (induction factor): higher signal when analysed with S9 than when analysed without S9
